Data on one compound can be found in ChEMBL document CHEMBL5579895, “Discovery of TYRA-300: First Oral Selective FGFR3 Inhibitor for the Treatment of Urothelial Cancers and Achondroplasia” (J Med Chem, 2024).

The target in series [1] is Fibroblast growth factor receptor 3 (Homo sapiens, UniProt P22607, N540K). Put plainly: Inhibition of FGFR3 N540K mutant (unknown origin) by NanoBRET assay.
The target in series [2] is Fibroblast growth factor receptor 3 (Homo sapiens, UniProt P22607, K650M). Kind of series: Inhibition of FGFR3 K650M mutant (unknown origin) by mobility shift assay.
Sequence of Fibroblast growth factor receptor 3 (Homo sapiens, UniProt P22607, K650M) (P22607 23-806 K650M limits assumed): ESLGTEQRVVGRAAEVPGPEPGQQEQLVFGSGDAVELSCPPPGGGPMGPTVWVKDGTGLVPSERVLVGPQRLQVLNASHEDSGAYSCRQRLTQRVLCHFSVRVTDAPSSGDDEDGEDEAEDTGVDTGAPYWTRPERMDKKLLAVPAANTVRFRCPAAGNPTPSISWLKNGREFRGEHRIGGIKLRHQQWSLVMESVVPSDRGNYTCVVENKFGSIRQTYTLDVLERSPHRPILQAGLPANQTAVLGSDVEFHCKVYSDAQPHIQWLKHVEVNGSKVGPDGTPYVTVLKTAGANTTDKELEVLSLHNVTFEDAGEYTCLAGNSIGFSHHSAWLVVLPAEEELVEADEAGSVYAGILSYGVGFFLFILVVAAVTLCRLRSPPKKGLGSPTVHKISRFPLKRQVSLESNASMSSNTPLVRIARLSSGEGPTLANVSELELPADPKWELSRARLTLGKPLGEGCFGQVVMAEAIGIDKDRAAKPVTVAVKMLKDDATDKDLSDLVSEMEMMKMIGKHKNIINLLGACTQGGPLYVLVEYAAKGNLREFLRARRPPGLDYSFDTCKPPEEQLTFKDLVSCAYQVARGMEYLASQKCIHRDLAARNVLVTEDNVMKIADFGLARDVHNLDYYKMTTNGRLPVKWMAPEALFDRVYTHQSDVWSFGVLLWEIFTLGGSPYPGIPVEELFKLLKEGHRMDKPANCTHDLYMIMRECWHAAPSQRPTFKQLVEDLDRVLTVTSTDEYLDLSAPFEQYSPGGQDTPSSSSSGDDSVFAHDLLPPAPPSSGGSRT
Series [3] deals with Vascular endothelial growth factor receptor 3 (Homo sapiens, UniProt P35916). Kind of series: Inhibition of human FLT4 by KINOMEscan analysis.
Sequence of Vascular endothelial growth factor receptor 3 (P35916 whole entry): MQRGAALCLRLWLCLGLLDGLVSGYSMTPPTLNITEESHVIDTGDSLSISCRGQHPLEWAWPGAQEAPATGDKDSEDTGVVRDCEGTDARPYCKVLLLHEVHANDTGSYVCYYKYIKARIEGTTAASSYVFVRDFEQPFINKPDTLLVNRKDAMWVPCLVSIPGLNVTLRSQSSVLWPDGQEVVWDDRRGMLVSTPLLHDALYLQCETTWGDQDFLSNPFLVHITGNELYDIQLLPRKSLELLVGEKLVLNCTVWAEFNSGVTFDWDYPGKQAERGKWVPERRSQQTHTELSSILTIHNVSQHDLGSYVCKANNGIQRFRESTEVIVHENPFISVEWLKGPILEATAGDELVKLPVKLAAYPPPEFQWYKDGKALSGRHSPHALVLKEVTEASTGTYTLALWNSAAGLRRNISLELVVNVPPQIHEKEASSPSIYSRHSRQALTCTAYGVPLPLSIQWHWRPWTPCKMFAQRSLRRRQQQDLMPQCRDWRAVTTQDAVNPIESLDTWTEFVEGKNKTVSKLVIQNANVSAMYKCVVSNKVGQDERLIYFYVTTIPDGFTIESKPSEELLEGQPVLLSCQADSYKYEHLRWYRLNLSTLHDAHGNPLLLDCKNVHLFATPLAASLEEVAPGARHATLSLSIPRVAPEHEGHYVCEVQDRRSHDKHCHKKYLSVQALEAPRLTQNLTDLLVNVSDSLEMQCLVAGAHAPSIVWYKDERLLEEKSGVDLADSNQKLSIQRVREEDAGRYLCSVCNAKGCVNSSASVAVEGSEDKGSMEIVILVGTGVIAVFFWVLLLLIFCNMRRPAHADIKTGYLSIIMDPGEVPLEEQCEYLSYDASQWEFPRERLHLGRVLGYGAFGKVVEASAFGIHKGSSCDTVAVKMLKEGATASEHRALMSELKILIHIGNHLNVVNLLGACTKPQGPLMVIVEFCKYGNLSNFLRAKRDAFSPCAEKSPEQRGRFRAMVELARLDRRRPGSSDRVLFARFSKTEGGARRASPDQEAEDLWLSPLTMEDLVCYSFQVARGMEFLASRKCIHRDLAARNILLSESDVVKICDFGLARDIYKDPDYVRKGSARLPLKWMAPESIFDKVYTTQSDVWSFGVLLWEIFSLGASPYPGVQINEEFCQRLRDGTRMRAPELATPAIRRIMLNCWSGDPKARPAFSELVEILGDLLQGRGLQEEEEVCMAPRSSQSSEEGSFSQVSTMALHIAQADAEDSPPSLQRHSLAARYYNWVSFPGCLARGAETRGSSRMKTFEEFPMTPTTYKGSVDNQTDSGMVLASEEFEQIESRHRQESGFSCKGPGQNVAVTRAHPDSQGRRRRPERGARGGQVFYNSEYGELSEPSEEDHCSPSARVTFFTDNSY
Series [4] has as its target Fibroblast growth factor receptor 4 (Homo sapiens, UniProt P22455). Put plainly: Inhibition of human FGFR4 by KINOMEscan analysis.
Series [5] has as its target Fibroblast growth factor receptor 1 (Homo sapiens, UniProt P11362). Kind of series: Inhibition of human FGFR1 by KINOMEscan analysis.
Series [6] has as its target T1, Vascular endothelial growth factor receptor 2 (Homo sapiens, UniProt P35968). Kind of series: Inhibition of human VEGFR2 by KINOMEscan analysis.
The target of series [7] is T1, Vascular endothelial growth factor receptor 2. Kind of series: Inhibition of human VEGFR2 at 100 nM by KINOMEscan analysis relative to control.
In another series the test system is RT112/84. Kind of series: cells. The series is classed as functional, cell-based. The settings on record: Homo sapiens.
Series [8] in a line: Inhibition of cell viability in human UMUC14 cells harboring FGFR3 V555M mutant incubated for 72 to 120 hrs by Cell Titer Glo assay. It counts as functional, cell-based. Background: Cellular ATP, detected with luciferase, serves as a proxy for viable cell number.
Series [9] is described as follows: Stability in mouse hepatocytes assessed as half life at 1 uM incubated upto 180 mins by LC-MS/MS analysis. It counts as ADME, cell-based, Hepatocyte.
The nature of series [10]: Thermodynamic solubility in FeSSIF. The series is classed as ADME. The settings on record: read-out: Therm_solubility.
Series [11] in a line: Thermodynamic solubility in FaSSIF. It counts as ADME. The settings on record: read-out: Therm_solubility.
A short description of series [12]: AUC (last) in Sprague-Dawley rat at 2 mg/kg, iv measured for 24 hrs by LC-MS/MS analysis. The series is classed as ADME, organism-based. The following applies: in vivo.
Series [13] is described as follows: Tmax in Sprague-Dawley rat at 10 mg/kg, po measured for 24 hrs by LC-MS/MS analysis. It counts as ADME, organism-based. The following applies: in vivo.
The nature of series [14]: Oral bioavailability in dog at 10 mg/kg measured for 24 hrs by LC-MS/MS analysis. It counts as ADME, organism-based, Canis lupus familiaris. The settings on record: in vivo.
Series [15] in a line: AUC (last) in monkey at 10 mg/kg, po measured for 24 hrs by LC-MS/MS analysis. The following applies: rhesus monkey, in vivo. The series is classed as ADME, organism-based, Macaca mulatta.

Molecules are shown by their SMILES. ≈ marks a conversion by molar mass, not a printed value.

T1 sequence (P35968 whole entry): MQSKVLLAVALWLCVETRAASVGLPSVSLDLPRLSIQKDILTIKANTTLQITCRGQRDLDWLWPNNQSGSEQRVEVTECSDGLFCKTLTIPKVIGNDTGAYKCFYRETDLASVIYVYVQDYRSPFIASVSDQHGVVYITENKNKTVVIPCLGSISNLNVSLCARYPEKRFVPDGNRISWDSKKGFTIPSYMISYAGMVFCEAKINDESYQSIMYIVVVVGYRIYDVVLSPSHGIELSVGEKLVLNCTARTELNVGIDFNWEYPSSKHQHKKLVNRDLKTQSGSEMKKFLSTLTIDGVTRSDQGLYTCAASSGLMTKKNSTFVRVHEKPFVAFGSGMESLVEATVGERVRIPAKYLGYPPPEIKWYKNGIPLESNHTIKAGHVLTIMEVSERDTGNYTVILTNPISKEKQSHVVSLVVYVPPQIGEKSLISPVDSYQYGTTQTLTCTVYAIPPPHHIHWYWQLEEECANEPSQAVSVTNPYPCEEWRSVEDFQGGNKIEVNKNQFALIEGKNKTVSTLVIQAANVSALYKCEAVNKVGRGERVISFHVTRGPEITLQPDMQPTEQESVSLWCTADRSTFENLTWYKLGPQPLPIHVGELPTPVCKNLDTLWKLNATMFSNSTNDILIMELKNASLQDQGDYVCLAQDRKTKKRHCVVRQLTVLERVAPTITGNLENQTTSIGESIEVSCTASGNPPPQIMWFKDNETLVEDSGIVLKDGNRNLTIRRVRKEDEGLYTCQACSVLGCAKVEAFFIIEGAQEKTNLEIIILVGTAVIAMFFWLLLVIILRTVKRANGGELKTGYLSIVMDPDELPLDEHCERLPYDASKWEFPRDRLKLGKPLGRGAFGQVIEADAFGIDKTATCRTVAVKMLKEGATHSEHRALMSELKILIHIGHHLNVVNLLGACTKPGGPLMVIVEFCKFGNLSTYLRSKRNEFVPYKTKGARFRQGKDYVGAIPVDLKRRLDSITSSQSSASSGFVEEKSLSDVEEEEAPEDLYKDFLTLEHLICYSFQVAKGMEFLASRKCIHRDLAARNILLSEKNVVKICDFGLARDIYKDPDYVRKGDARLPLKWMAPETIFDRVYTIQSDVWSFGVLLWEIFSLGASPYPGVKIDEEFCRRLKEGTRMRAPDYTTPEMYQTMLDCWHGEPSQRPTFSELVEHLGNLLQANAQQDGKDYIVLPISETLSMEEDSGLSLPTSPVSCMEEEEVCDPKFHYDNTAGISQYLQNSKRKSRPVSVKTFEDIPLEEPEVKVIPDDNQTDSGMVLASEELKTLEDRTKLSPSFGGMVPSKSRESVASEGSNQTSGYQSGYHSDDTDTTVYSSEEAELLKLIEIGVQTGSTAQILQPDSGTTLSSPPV
Sequence of Fibroblast growth factor receptor 1 (P11362 whole entry): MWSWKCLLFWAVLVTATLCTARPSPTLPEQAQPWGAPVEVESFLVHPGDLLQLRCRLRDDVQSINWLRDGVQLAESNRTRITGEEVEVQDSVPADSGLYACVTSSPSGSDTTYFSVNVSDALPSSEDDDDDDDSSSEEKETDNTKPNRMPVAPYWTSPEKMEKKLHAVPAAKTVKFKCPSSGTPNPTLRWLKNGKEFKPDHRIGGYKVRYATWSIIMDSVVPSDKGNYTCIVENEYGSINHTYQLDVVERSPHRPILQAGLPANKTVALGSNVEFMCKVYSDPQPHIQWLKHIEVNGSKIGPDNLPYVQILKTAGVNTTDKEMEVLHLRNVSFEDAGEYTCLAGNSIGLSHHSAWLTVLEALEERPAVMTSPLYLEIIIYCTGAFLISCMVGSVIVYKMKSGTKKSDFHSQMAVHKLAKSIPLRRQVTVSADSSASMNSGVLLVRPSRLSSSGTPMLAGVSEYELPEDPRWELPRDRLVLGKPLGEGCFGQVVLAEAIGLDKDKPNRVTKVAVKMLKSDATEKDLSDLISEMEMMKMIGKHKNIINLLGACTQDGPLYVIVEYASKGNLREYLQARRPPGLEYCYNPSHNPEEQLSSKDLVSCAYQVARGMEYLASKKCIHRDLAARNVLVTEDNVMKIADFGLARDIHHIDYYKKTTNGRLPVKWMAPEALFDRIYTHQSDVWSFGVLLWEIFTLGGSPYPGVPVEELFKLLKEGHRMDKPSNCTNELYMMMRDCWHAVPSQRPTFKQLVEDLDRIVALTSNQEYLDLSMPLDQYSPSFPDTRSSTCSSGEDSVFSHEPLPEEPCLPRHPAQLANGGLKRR
Sequence of Fibroblast growth factor receptor 3 (Homo sapiens, UniProt P22607, N540K) (P22607 23-806 N540K limits assumed): as the sequence (P22607 23-806 K650M limits assumed) above, with N518K, M628K counted along it
Description for RT112/84: Inhibition of cell viability in human RT112/84 cells harboring FGFR3 V555M mutant incubated for 72 to 120 hrs by Cell Titer Glo assay

Regarding `C[C@@H](Oc1ccc2[nH]nc(-c3ccc(N4CC5(C4)CN(S(C)(=O)=O)C5)nc3)c2c1)c1c(Cl)cncc1Cl`, the IC50 in series [1] was 73 nM; in series [2], 2.3 nM; in series [3], 2.1 nM; in series [4], 11 nM; in series [5], 108 nM; in [6], 325 nM. In addition, the half-inhibitory concentration (IC50) in the series with RT112/84 was found to be 17 nM; in [8], 21 nM. In series [7], this compound yielded an inhibition of less than 90%. Besides, the half-life at 1 µM in [9] is greater than 1.67 h. The solubility thermodynamic came out at 514 µM (≈ 288 µg/mL) in [10] and 20 µM (≈ 11.2 µg/mL) in [11]. Also, the exposure AUC(0-t) at 24 h stood at 1730 ng·h/mL in [12] and 15900 ng·h/mL in series [15]. Besides, the Tmax in series [13] came to 4 h. In series [14], this compound returned a bioavailability of 98%.

The IC50 is the point on the concentration scale where inhibition reaches its midpoint. The term inhibition denotes the drop in the measured response relative to a control, in per cent. As a reminder, the half-life is how long it takes for the measured level to halve. By AUC(0-t) is commonly meant exposure summed from dosing to a finite time, without extrapolation to infinity. For orientation: Tmax means the time from dosing to the highest level. Broadly, the bioavailability is the share of a dose that reaches the circulation, judged against a reference dose that is usually intravenous.
